pIC50: −log10 of the molar value. Some results are limits rather than exact numbers.

Data set [1] deals with T1, GST-LRRK2 [A2016T] (1326-2517) (Homo sapiens, UniProt Q5S007, A2016T).
T1 sequence (Q5S007 1326-2527 A2016T): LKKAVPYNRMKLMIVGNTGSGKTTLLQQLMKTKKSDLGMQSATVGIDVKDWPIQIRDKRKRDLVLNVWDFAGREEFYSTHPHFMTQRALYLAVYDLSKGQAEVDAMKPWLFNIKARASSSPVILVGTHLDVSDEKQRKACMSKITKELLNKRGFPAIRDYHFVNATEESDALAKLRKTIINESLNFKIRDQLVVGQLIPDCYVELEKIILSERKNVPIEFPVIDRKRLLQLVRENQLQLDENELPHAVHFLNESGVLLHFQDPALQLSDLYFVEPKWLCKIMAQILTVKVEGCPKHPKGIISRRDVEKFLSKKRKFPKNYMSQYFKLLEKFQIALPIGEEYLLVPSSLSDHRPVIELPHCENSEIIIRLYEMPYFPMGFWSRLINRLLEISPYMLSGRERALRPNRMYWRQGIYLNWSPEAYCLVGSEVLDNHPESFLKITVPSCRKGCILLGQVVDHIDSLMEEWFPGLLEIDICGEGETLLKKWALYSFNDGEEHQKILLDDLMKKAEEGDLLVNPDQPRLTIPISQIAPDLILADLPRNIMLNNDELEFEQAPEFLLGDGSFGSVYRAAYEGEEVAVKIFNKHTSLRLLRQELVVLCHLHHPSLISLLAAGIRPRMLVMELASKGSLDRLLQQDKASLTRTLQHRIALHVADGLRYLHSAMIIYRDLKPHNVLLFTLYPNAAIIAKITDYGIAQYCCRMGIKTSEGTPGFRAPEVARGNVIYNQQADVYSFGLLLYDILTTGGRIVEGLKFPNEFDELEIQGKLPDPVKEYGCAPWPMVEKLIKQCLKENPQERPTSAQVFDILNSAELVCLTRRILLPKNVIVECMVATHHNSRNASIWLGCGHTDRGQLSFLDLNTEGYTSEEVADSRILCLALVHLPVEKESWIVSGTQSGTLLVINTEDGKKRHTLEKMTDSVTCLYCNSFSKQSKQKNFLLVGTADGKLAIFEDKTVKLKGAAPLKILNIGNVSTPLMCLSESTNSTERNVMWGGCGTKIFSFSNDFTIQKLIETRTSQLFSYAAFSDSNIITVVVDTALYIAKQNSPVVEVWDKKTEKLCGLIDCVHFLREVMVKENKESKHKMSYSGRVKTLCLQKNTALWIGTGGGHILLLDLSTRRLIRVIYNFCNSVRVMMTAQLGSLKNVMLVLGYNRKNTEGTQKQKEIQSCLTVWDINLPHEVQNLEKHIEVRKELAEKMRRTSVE
Conditions: cited from earlier work.

The subject of the next data set is GFP-LRRK2. The data set is described as follows: Fluorescence microscopy of LRRK2 localisation, HEK 293 stable cells. It counts as cell-based. Conditions: 1 µM, 2 h time course.
For another data set, the system named is DCLK1. The data set is described as follows: KiNativ. The class given is binding. Conditions: hPBMC and mouse brain tissue profiling.
Data set [2] deals with kinase inactive LRRK2 {D2017A]. It counts as cell-based. Conditions: 1 µM, 2 h.
For a further data set, the target named is T2, NUAK1 (Homo sapiens, UniProt O60285).
T2 sequence (O60285 1-661): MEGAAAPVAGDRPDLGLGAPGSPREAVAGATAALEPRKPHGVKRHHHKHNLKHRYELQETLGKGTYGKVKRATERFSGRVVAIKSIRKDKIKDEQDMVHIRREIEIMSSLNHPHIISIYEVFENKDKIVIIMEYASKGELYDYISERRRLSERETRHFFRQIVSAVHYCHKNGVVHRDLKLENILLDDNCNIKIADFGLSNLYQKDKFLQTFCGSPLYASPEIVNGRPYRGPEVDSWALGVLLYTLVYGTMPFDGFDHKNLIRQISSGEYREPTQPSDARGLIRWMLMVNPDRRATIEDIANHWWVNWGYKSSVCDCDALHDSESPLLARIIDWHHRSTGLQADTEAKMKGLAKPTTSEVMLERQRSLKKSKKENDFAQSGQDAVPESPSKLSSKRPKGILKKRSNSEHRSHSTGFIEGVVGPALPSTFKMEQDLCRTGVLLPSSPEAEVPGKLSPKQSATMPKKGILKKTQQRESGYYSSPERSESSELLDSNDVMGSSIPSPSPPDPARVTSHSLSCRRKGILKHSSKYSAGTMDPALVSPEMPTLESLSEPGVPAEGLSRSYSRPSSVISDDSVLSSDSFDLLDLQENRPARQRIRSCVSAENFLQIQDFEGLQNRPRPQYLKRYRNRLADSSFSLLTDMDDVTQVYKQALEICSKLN
The data set is described as follows: Invitrogen SelectScreen biochemical assay.

Data set [3] has as its system GFP-LRRK2 [A2016T].
In another data set the test system is LRRK2. It counts as binding. Conditions: hPBMC and mouse brain tissue profiling.
Another data set concerns endogenous LRRK2. Conditions: mice, 100 mg/kg intraperitoneal, 1 h and 2 h time points.
Data set [4] has as its target T3, CHEK2 (Homo sapiens, UniProt O96017). The data set is described as follows: Invitrogen SelectScreen biochemical assay.
Target sequence in this assay (O96017 whole entry, species assumed): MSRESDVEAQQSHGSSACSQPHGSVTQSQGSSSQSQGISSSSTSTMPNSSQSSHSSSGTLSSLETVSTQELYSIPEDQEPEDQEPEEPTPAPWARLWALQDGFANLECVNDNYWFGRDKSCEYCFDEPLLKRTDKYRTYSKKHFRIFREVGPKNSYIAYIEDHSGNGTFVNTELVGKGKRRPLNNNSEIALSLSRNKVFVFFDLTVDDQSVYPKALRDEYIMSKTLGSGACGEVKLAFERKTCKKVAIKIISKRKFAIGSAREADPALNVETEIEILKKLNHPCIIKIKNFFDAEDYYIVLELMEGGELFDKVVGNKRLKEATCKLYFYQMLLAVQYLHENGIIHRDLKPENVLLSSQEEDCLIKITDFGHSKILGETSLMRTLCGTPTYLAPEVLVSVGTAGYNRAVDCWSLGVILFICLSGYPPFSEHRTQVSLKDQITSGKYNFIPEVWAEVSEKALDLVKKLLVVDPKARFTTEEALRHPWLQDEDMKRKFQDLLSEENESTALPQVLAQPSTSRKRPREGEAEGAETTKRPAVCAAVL
Another data set addresses MKNK2 (Homo sapiens, UniProt Q9HBH9). The data set is described as follows: Invitrogen SelectScreen biochemical assay.
Data set [5] has as its system GFP-LRRK2 [A2016T]. The data set is described as follows: Fluorescence microscopy of LRRK2 localisation, HEK 293 stable cells. The class given is cell-based. The conditions noted are these: 1 µM, 2 h time course.
Data set [6] has as its target T3, CHEK2. The data set is described as follows: KiNativ. It counts as binding.
Target sequence in this assay (O96017 whole entry): as the sequence (O96017 whole entry, species assumed) above
The target in the next data set is T4, DCLK2 (Homo sapiens, UniProt Q8N568).
T4 sequence (Q8N568 1-766): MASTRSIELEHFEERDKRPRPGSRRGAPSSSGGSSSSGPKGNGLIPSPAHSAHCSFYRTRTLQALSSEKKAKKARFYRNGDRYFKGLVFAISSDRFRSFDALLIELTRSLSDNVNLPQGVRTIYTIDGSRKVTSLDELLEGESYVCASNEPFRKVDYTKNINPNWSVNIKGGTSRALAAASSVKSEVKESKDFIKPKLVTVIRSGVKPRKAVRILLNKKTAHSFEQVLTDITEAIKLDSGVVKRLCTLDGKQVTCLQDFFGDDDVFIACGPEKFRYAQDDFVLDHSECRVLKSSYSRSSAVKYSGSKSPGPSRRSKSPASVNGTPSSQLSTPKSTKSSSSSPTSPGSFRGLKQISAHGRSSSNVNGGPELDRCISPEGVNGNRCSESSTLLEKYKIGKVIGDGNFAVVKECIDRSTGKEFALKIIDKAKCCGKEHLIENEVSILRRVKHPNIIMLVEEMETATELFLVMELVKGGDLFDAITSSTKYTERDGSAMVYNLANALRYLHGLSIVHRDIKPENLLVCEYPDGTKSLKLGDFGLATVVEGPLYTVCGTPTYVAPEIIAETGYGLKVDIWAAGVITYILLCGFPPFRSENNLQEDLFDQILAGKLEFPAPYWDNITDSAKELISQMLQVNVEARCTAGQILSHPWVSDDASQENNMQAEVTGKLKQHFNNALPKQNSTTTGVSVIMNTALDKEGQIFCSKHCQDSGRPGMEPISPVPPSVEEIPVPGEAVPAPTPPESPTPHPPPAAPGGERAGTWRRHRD
The data set is described as follows: Invitrogen SelectScreen biochemical assay.

Data set [7] relates to GFP-LRRK2[A2016T+G2019S]. The data set is described as follows: Fluorescence microscopy of LRRK2 localisation, HEK 293 stable cells. It counts as cell-based. The conditions noted are these: 1 µM, 2 h time course.
The target of another data set is AURKB (Homo sapiens, UniProt Q96GD4). The data set is described as follows: Invitrogen SelectScreen biochemical assay.
For another data set, the target named is PLK1 (Homo sapiens, UniProt P53350). The data set is described as follows: Invitrogen SelectScreen biochemical assay.
The test system of the next data set is GFP-LRRK1. The data set is described as follows: Fluorescence microscopy of LRRK1 localisation, HEK 293 stable cells. The class given is cell-based. Conditions: 1 µM, 2 hours.
For a further data set, the target named is MAPK7 (Homo sapiens, UniProt Q13164). The data set is described as follows: KiNativ. The conditions noted are these: hPBMC and mouse brain tissue profiling. The class given is binding.
In data set [8] the test system is GFP-LRRK2[A2016T+G2019S].
The nature of a further data set: Pharmacokinetics in mice. The class given is in vivo. The conditions noted are these: mouse, plasma, po, 10 mg/kg.
For a further data set, the target named is MYLK (Homo sapiens, UniProt Q15746). The data set is described as follows: Invitrogen SelectScreen biochemical assay.
MYLK, sequence (Q15746 whole entry, species assumed): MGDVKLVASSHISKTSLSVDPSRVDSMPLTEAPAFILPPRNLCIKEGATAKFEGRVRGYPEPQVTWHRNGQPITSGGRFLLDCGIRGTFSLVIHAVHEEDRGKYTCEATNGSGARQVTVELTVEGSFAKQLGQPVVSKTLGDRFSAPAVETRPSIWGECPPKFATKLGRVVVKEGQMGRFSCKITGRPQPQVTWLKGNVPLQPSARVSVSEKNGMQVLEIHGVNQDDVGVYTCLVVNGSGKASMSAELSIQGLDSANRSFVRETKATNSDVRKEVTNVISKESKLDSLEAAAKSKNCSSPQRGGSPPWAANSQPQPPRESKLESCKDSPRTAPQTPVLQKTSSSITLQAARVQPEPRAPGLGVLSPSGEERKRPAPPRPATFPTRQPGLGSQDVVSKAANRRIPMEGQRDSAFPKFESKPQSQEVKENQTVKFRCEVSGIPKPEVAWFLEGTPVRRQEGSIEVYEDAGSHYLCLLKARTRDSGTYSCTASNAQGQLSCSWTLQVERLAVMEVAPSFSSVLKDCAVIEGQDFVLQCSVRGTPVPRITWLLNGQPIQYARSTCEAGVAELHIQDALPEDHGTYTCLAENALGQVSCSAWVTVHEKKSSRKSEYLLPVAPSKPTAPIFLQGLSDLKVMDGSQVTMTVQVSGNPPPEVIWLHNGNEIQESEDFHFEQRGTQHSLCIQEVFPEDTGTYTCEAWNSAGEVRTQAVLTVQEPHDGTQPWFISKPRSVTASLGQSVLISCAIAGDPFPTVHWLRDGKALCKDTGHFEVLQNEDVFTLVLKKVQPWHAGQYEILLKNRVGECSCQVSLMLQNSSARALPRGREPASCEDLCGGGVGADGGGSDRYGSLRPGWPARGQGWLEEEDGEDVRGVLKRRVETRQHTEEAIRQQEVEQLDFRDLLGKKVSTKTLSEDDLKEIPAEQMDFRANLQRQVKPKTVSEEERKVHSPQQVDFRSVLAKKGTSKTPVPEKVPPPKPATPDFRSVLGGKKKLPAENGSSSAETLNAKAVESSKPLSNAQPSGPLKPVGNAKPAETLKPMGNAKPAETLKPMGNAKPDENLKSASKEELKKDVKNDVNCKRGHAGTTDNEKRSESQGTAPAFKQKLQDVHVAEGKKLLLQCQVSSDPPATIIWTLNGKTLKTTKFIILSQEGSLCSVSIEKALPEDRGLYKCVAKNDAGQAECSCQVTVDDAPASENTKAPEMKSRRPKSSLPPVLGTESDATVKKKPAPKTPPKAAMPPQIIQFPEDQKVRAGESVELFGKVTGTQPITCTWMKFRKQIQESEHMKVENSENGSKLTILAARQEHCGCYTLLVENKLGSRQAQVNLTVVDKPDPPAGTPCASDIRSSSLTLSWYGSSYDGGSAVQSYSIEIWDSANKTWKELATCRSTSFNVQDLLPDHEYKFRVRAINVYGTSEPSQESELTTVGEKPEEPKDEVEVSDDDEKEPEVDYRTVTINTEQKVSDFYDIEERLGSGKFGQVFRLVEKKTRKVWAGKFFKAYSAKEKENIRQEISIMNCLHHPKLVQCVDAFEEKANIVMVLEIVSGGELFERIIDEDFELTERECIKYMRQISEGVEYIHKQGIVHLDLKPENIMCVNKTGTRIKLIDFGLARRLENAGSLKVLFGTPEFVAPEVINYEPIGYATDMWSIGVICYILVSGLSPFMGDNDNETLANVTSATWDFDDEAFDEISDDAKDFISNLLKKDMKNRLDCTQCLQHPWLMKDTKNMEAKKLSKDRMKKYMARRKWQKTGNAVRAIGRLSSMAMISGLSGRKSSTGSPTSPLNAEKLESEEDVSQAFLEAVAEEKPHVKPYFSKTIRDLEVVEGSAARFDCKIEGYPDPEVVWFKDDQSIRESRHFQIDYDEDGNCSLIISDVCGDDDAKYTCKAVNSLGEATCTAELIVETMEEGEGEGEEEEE

PLK1, sequence (P53350 whole entry): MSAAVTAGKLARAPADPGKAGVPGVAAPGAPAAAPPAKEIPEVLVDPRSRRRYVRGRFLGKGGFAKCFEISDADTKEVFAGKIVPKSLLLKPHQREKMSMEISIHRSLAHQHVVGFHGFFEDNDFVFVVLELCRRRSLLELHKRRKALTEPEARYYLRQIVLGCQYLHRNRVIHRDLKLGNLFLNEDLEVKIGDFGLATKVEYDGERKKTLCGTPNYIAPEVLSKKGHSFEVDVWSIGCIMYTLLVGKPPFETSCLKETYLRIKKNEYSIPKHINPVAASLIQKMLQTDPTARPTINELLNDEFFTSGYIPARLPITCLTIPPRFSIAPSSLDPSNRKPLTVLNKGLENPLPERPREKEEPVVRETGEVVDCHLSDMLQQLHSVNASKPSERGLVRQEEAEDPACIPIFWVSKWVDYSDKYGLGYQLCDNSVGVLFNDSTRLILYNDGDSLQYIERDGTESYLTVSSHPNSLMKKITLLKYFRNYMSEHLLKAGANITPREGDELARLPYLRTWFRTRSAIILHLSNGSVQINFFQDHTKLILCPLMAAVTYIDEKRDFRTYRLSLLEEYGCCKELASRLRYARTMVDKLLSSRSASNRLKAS
MAPK7, sequence (Q13164 whole entry): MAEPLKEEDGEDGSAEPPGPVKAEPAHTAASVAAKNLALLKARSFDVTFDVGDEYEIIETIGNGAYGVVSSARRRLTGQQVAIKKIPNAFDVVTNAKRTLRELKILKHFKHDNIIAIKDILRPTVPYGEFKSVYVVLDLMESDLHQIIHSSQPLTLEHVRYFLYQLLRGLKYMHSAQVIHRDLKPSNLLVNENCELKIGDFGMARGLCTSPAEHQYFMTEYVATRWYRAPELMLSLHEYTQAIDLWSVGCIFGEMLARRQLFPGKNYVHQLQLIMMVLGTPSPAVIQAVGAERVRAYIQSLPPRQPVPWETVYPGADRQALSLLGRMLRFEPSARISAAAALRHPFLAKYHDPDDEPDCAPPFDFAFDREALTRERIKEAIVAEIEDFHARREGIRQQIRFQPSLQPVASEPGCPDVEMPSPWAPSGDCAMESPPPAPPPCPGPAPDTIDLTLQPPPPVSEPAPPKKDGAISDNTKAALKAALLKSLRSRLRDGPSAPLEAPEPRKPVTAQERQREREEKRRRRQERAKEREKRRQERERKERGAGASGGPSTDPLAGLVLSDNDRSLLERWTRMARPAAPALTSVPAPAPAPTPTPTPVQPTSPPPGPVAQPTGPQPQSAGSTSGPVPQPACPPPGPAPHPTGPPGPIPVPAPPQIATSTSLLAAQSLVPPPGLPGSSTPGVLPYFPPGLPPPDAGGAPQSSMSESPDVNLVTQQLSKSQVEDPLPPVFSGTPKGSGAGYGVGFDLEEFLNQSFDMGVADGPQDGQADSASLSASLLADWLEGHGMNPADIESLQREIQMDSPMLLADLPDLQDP
AURKB, sequence (Q96GD4 whole entry, species assumed): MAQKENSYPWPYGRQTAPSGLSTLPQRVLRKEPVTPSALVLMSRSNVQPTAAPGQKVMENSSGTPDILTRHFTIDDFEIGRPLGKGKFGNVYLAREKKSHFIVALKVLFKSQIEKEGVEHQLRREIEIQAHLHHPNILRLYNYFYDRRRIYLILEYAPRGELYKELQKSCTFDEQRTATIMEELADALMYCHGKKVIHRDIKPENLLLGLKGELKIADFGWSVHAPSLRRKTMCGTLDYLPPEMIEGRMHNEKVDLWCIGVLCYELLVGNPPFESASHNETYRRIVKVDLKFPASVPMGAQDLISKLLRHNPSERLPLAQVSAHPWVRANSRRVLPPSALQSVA
MKNK2, sequence (Q9HBH9 whole entry, species assumed): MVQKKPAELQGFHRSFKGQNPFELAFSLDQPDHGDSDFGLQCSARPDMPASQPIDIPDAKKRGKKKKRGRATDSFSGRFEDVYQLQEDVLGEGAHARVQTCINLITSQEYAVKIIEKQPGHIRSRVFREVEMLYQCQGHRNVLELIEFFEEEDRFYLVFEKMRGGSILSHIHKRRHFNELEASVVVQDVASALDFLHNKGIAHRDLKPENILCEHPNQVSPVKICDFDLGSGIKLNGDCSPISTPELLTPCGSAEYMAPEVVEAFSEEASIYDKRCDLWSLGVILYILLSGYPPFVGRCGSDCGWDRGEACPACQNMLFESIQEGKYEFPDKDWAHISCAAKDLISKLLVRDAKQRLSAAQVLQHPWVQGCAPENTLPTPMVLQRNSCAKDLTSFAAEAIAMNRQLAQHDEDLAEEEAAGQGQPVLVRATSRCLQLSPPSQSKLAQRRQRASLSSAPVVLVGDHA

As for `Cc1cncc2cccc(S(=O)(=O)N3CCCNC[C@@H]3C)c12` [H-1152], the “fold less sensitive to inhibitor” value in data set [1] is 32 fold.

With `COc1cc(C(=O)N2CCC(N3CCN(C)CC3)CC2)ccc1Nc1ncc2c(n1)N(C)c1ccccc1C(=O)N2C` [LRRK2-IN-1], the “localization of LRRK2 (accumulation into aggregate structures)” value with GFP-LRRK2 was “significant accumulation”. In addition, the “inhibition in KiNativ profiling” value with DCLK1, with LRRK2 and against MAPK7 was “confirmed inhibition” in each case. In addition, the “dephosphorylation of Ser910/Ser935” value in data set [2] is given as “did not induce significant dephosphorylation”; in the data set on GFP-LRRK2 [A2016T] [3], “failed to induce dephosphorylation”; with GFP-LRRK2[A2016T+G2019S] [8], “failed to induce dephosphorylation”. Moreover, the pIC50 against NUAK1 is below 6.00; at CHEK2 [4], below 6.00; at MKNK2, below 6.00; against CHEK2 [6] it was below 6.00; at DCLK2, 7.35; against AURKB it was below 6.00. The pIC50 at PLK1 and at MYLK was below 6.00 in each case. In addition, in the data set on endogenous LRRK2, the “Ser910/Ser935 dephosphorylation of LRRK2 in the kidney” value is recorded as “complete Ser910/Ser935 dephosphorylation”. In the data set on endogenous LRRK2, the “dephosphorylation of LRRK2 Ser910 or Ser935 in brain” value is recorded as “no dephosphorylation”. In addition, the “localization of LRRK2” value in the data set on GFP-LRRK2 [A2016T] [5] and in the data set with GFP-LRRK2[A2016T+G2019S] [7] was “did not affect the localization” in each case. In addition, the “localization of LRRK1” value in the data set with GFP-LRRK1 was “does not change”. In the data set “Pharmacokinetics in mice”, this compound gave an AUC(0-inf) of 14800 ng·h/mL. Besides, the bioavailability in the data set “Pharmacokinetics in mice” was determined as 49.3%.

As for `CCN(CC)CCNC(=O)c1c(C)[nH]c(/C=C2\C(=O)Nc3ccc(F)cc32)c1C` [sunitinib], the “fold less sensitive to inhibitor” value in data set [1] is reported as 12 fold.

Usually pIC50 stands for −log10 of the IC50, conventionally taken in molar units. A word on the AUC(0-inf): it is total exposure, with the tail of the curve extrapolated. A high value points to more exposure. The bioavailability is the share of a dose that reaches the circulation, judged against a reference dose that is usually intravenous. Lower therefore signals poor availability.

The values are drawn from article PMC3287420 (Nature chemical biology, 2011).
